According to the supplement of paper PMC10307832:

What was measured:
Assay in all cases: relative viability (nuclei count vs DMSO), 5 days (fraction); higher = more cells survive
Doxorubicin + Navitoclax = compound: COc1cccc2c1C(=O)c1c(O)c3c(c(O)c1C2=O)C[C@@](O)(C(=O)CO)C[C@@H]3O[C@H]1C[C@H](N)[C@H](O)[C@H](C)O1 [Doxorubicin] + CC1(C)CCC(c2ccc(Cl)cc2)=C(CN2CCN(c3ccc(C(=O)NS(=O)(=O)c4ccc(N[C@H](CCN5CCOCC5)CSc5ccccc5)c(S(=O)(=O)C(F)(F)F)c4)cc3)CC2)C1 [Navitoclax] (partner 0.5 µM)
Summary of the method: (§1)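 Relative viability equals treated-well nuclei counts divided by vehicle-well nuclei counts. Counts came from 4× images of lung cancer cell lines grown in 1536-well plates for 5 days after pin-tool dosing on the day after seeding. Dosing used one drug alone or a fixed anchor-drug dose plus five library-drug doses (not always all listed) in √10 steps, and values are medians of duplicate plates.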

BAY61-3606 + OSI-027 = compound: COC1=C(C=C(C=C1)C2=CC3=NC=CN3C(=N2)NC4=C(C=CC=N4)C(=O)N)OC [BAY61-3606] + COc1cccc2cc(-c3nc([C@H]4CC[C@H](C(=O)O)CC4)n4ncnc(N)c34)[nH]c12 [OSI-027] (partner 0.5 µM)
Summary of the method: as §1

Doxorubicin + Linsitinib = compound: COc1cccc2c1C(=O)c1c(O)c3c(c(O)c1C2=O)C[C@@](O)(C(=O)CO)C[C@@H]3O[C@H]1C[C@H](N)[C@H](O)[C@H](C)O1 [Doxorubicin] + C[C@]1(O)C[C@@H](c2nc(-c3ccc4ccc(-c5ccccc5)nc4c3)c3c(N)nccn32)C1 [Linsitinib] (partner 1 µM)
Summary of the method: as §1

BAY61-3606 + Vorinostat = compound: COC1=C(C=C(C=C1)C2=CC3=NC=CN3C(=N2)NC4=C(C=CC=N4)C(=O)N)OC [BAY61-3606] + O=C(CCCCCCC(=O)Nc1ccccc1)NO [Vorinostat] (partner 1 µM)
Summary of the method: as §1

201T
relative viability (Doxorubicin + Navitoclax; first compound 0.001 µM): 1.16 | relative viability (Doxorubicin + Navitoclax; first compound 0.003162 µM): 1.19 | relative viability (Doxorubicin + Navitoclax; first compound 0.01 µM): 1.2 | relative viability (Doxorubicin + Navitoclax; first compound 0.03162 µM): 1.24 | relative viability (Doxorubicin + Navitoclax; first compound 0.1 µM): 1.21 | relative viability (BAY61-3606 + OSI-027; first compound 0.02 µM): 0.759 | relative viability (BAY61-3606 + OSI-027; first compound 0.2 µM): 0.703 | relative viability (BAY61-3606 + OSI-027; first compound 0.6325 µM): 0.661 | relative viability (BAY61-3606 + OSI-027; first compound 2 µM): 0.512 | relative viability (Doxorubicin + Linsitinib; first compound 0.001 µM): 1 | relative viability (Doxorubicin + Linsitinib; first compound 0.003162 µM): 0.979 | relative viability (Doxorubicin + Linsitinib; first compound 0.01 µM): 0.983 | relative viability (Doxorubicin + Linsitinib; first compound 0.03162 µM): 1.06 | relative viability (Doxorubicin + Linsitinib; first compound 0.1 µM): 1.01 | relative viability (BAY61-3606 + Vorinostat; first compound 0.02 µM): 1.02 | relative viability (BAY61-3606 + Vorinostat; first compound 0.06325 µM): 0.962 | relative viability (BAY61-3606 + Vorinostat; first compound 0.2 µM): 1.05 | relative viability (BAY61-3606 + Vorinostat; first compound 0.6325 µM): 1.09 | relative viability (BAY61-3606 + Vorinostat; first compound 2 µM): 1.06

A549
relative viability (Doxorubicin + Navitoclax; first compound 0.001 µM): 1.15 | relative viability (Doxorubicin + Navitoclax; first compound 0.003162 µM): 0.977 | relative viability (Doxorubicin + Navitoclax; first compound 0.01 µM): 0.468 | relative viability (Doxorubicin + Navitoclax; first compound 0.03162 µM): 0.0557 | relative viability (Doxorubicin + Navitoclax; first compound 0.1 µM): 0.0324 | relative viability (Doxorubicin + Linsitinib; first compound 0.003162 µM): 0.609 | relative viability (Doxorubicin + Linsitinib; first compound 0.01 µM): 0.502 | relative viability (Doxorubicin + Linsitinib; first compound 0.03162 µM): 0.52 | relative viability (Doxorubicin + Linsitinib; first compound 0.1 µM): 0.646

A-427
relative viability (Doxorubicin + Navitoclax; first compound 0.001 µM): 1 | relative viability (Doxorubicin + Navitoclax; first compound 0.003162 µM): 0.978 | relative viability (Doxorubicin + Navitoclax; first compound 0.01 µM): 0.966 | relative viability (Doxorubicin + Navitoclax; first compound 0.03162 µM): 0.983 | relative viability (Doxorubicin + Navitoclax; first compound 0.1 µM): 1.05 | relative viability (BAY61-3606 + OSI-027; first compound 0.02 µM): 0.538 | relative viability (BAY61-3606 + OSI-027; first compound 0.06325 µM): 0.44 | relative viability (BAY61-3606 + OSI-027; first compound 0.2 µM): 0.479 | relative viability (BAY61-3606 + OSI-027; first compound 0.6325 µM): 0.542 | relative viability (BAY61-3606 + OSI-027; first compound 2 µM): 0.476 | relative viability (Doxorubicin + Linsitinib; first compound 0.001 µM): 1.11 | relative viability (Doxorubicin + Linsitinib; first compound 0.003162 µM): 1.15 | relative viability (Doxorubicin + Linsitinib; first compound 0.01 µM): 1.11 | relative viability (Doxorubicin + Linsitinib; first compound 0.03162 µM): 1.17 | relative viability (Doxorubicin + Linsitinib; first compound 0.1 µM): 1.16 | relative viability (BAY61-3606 + Vorinostat; first compound 0.02 µM): 0.991 | relative viability (BAY61-3606 + Vorinostat; first compound 0.06325 µM): 0.869 | relative viability (BAY61-3606 + Vorinostat; first compound 0.2 µM): 0.876 | relative viability (BAY61-3606 + Vorinostat; first compound 0.6325 µM): 0.875 | relative viability (BAY61-3606 + Vorinostat; first compound 2 µM): 0.888

ABC-1
relative viability (BAY61-3606 + OSI-027; first compound 0.02 µM): 0.51 | relative viability (BAY61-3606 + OSI-027; first compound 0.06325 µM): 0.545 | relative viability (BAY61-3606 + OSI-027; first compound 0.2 µM): 0.521 | relative viability (BAY61-3606 + OSI-027; first compound 0.6325 µM): 0.647 | relative viability (BAY61-3606 + OSI-027; first compound 2 µM): 0.452 | relative viability (Doxorubicin + Linsitinib; first compound 0.001 µM): 0.787 | relative viability (Doxorubicin + Linsitinib; first compound 0.003162 µM): 0.727 | relative viability (Doxorubicin + Linsitinib; first compound 0.01 µM): 0.805 | relative viability (Doxorubicin + Linsitinib; first compound 0.03162 µM): 0.435 | relative viability (Doxorubicin + Linsitinib; first compound 0.1 µM): 0.337 | relative viability (BAY61-3606 + Vorinostat; first compound 0.02 µM): 1.41 | relative viability (BAY61-3606 + Vorinostat; first compound 0.06325 µM): 1.08 | relative viability (BAY61-3606 + Vorinostat; first compound 0.2 µM): 1.3 | relative viability (BAY61-3606 + Vorinostat; first compound 0.6325 µM): 1.3 | relative viability (BAY61-3606 + Vorinostat; first compound 2 µM): 1.28

Calu-6
relative viability (Doxorubicin + Navitoclax; first compound 0.001 µM): 0.835 | relative viability (Doxorubicin + Navitoclax; first compound 0.003162 µM): 0.91 | relative viability (Doxorubicin + Navitoclax; first compound 0.01 µM): 0.581 | relative viability (Doxorubicin + Navitoclax; first compound 0.03162 µM): 0.24 | relative viability (Doxorubicin + Navitoclax; first compound 0.1 µM): 0.113 | relative viability (Doxorubicin + Linsitinib; first compound 0.001 µM): 0.944 | relative viability (Doxorubicin + Linsitinib; first compound 0.003162 µM): 0.972 | relative viability (Doxorubicin + Linsitinib; first compound 0.01 µM): 0.814 | relative viability (Doxorubicin + Linsitinib; first compound 0.03162 µM): 0.627 | relative viability (Doxorubicin + Linsitinib; first compound 0.1 µM): 0.702

ChaGo-K-1
relative viability (Doxorubicin + Navitoclax; first compound 0.001 µM): 1.16 | relative viability (Doxorubicin + Navitoclax; first compound 0.003162 µM): 0.807 | relative viability (Doxorubicin + Navitoclax; first compound 0.01 µM): 0.888 | relative viability (Doxorubicin + Navitoclax; first compound 0.03162 µM): 0.515 | relative viability (Doxorubicin + Navitoclax; first compound 0.1 µM): 0.316 | relative viability (BAY61-3606 + OSI-027; first compound 0.02 µM): 0.537 | relative viability (BAY61-3606 + OSI-027; first compound 0.06325 µM): 0.533 | relative viability (BAY61-3606 + OSI-027; first compound 0.2 µM): 0.519 | relative viability (BAY61-3606 + OSI-027; first compound 0.6325 µM): 0.495 | relative viability (BAY61-3606 + OSI-027; first compound 2 µM): 0.639 | relative viability (BAY61-3606 + Vorinostat; first compound 0.02 µM): 0.72 | relative viability (BAY61-3606 + Vorinostat; first compound 0.06325 µM): 0.767 | relative viability (BAY61-3606 + Vorinostat; first compound 0.2 µM): 0.715 | relative viability (BAY61-3606 + Vorinostat; first compound 0.6325 µM): 0.714 | relative viability (BAY61-3606 + Vorinostat; first compound 2 µM): 0.793

EBC-1
relative viability (Doxorubicin + Navitoclax; first compound 0.001 µM): 0.488 | relative viability (Doxorubicin + Navitoclax; first compound 0.003162 µM): 0.524 | relative viability (Doxorubicin + Navitoclax; first compound 0.01 µM): 0.377 | relative viability (Doxorubicin + Navitoclax; first compound 0.03162 µM): 0.171 | relative viability (Doxorubicin + Navitoclax; first compound 0.1 µM): 0.123 | relative viability (Doxorubicin + Linsitinib; first compound 0.001 µM): 0.826 | relative viability (Doxorubicin + Linsitinib; first compound 0.003162 µM): 0.839 | relative viability (Doxorubicin + Linsitinib; first compound 0.01 µM): 0.983 | relative viability (Doxorubicin + Linsitinib; first compound 0.03162 µM): 0.722 | relative viability (Doxorubicin + Linsitinib; first compound 0.1 µM): 0.985

IA-LM
relative viability (Doxorubicin + Navitoclax; first compound 0.001 µM): 0.616 | relative viability (Doxorubicin + Navitoclax; first compound 0.003162 µM): 0.821 | relative viability (Doxorubicin + Navitoclax; first compound 0.01 µM): 0.6 | relative viability (Doxorubicin + Navitoclax; first compound 0.03162 µM): 0.278 | relative viability (Doxorubicin + Navitoclax; first compound 0.1 µM): 0.0497 | relative viability (Doxorubicin + Linsitinib; first compound 0.001 µM): 0.519 | relative viability (Doxorubicin + Linsitinib; first compound 0.003162 µM): 0.706 | relative viability (Doxorubicin + Linsitinib; first compound 0.01 µM): 0.575 | relative viability (Doxorubicin + Linsitinib; first compound 0.03162 µM): 0.573 | relative viability (Doxorubicin + Linsitinib; first compound 0.1 µM): 0.74 | relative viability (BAY61-3606 + Vorinostat; first compound 0.02 µM): 0.947 | relative viability (BAY61-3606 + Vorinostat; first compound 0.06325 µM): 0.851 | relative viability (BAY61-3606 + Vorinostat; first compound 0.2 µM): 0.894 | relative viability (BAY61-3606 + Vorinostat; first compound 0.6325 µM): 1.25 | relative viability (BAY61-3606 + Vorinostat; first compound 2 µM): 0.96

LCLC-103H
relative viability (BAY61-3606 + OSI-027; first compound 0.02 µM): 0.472 | relative viability (BAY61-3606 + OSI-027; first compound 0.06325 µM): 0.434 | relative viability (BAY61-3606 + OSI-027; first compound 0.2 µM): 0.478 | relative viability (BAY61-3606 + OSI-027; first compound 0.6325 µM): 0.425 | relative viability (BAY61-3606 + OSI-027; first compound 2 µM): 0.439 | relative viability (Doxorubicin + Linsitinib; first compound 0.001 µM): 0.935 | relative viability (Doxorubicin + Linsitinib; first compound 0.003162 µM): 1.17 | relative viability (Doxorubicin + Linsitinib; first compound 0.01 µM): 1.06 | relative viability (Doxorubicin + Linsitinib; first compound 0.03162 µM): 1.17 | relative viability (Doxorubicin + Linsitinib; first compound 0.1 µM): 1.14 | relative viability (BAY61-3606 + Vorinostat; first compound 0.02 µM): 0.782 | relative viability (BAY61-3606 + Vorinostat; first compound 0.06325 µM): 0.716 | relative viability (BAY61-3606 + Vorinostat; first compound 0.2 µM): 0.724 | relative viability (BAY61-3606 + Vorinostat; first compound 0.6325 µM): 0.791 | relative viability (BAY61-3606 + Vorinostat; first compound 2 µM): 0.789

NCI-H358
relative viability (BAY61-3606 + OSI-027; first compound 0.02 µM): 0.918 | relative viability (BAY61-3606 + OSI-027; first compound 0.06325 µM): 0.722 | relative viability (BAY61-3606 + OSI-027; first compound 0.2 µM): 0.781 | relative viability (BAY61-3606 + OSI-027; first compound 0.6325 µM): 0.677 | relative viability (BAY61-3606 + OSI-027; first compound 2 µM): 0.199 | relative viability (Doxorubicin + Linsitinib; first compound 0.001 µM): 0.756 | relative viability (Doxorubicin + Linsitinib; first compound 0.003162 µM): 0.896 | relative viability (Doxorubicin + Linsitinib; first compound 0.01 µM): 0.529 | relative viability (Doxorubicin + Linsitinib; first compound 0.03162 µM): 0.215 | relative viability (Doxorubicin + Linsitinib; first compound 0.1 µM): 0.176 | relative viability (BAY61-3606 + Vorinostat; first compound 0.02 µM): 0.697 | relative viability (BAY61-3606 + Vorinostat; first compound 0.06325 µM): 0.759 | relative viability (BAY61-3606 + Vorinostat; first compound 0.2 µM): 0.631 | relative viability (BAY61-3606 + Vorinostat; first compound 0.6325 µM): 0.658 | relative viability (BAY61-3606 + Vorinostat; first compound 2 µM): 0.386
